“And” between values parts separate entries of the source, which are not always exact repeats. Equal values may be shown once. Read-outs that look alike come from different tables or passages of the source.
Tests used:
C. albicans ATCC 10231 = experiment: Antimicrobial activity, broth microdilution MIC/MBC; assay type: cell-based, Candida albicans; conditions: C. albicans ATCC 10231, 24 h at 37 °C, at least 90% growth inhibition; nd—not detected
[1] = system: Lepidium sativum L. seeds; conditions: 24 h incubation, mean(±SD), n = 3
[2] = system: Lepidium sativum L. roots; conditions: 24 h incubation, mean(±SD), n = 3
L929 fibroblasts = experiment: Mammalian cell cytotoxicity screening, resazurin viability; assay type: cell-based, mouse
[3] = 0.01% (w/w) compound in the medium
[4] = 0.03% (w/w) compound in the medium
[5] = 0.05% (w/w) compound in the medium
[6] = 0.10% (w/w) compound in the medium
[7] = 0.30% (w/w) compound in the medium
[8] = 0.50% (w/w) compound in the medium
[9] = 1.00% (w/w) compound in the medium
[10] = 2.00% (w/w) compound in the medium
[11] = 3.00% (w/w) compound in the medium
[12] = 4.00% (w/w) compound in the medium
[13] = 5.00% (w/w) compound in the medium

| SMILES | Inhibition of the Lepidium sativum seeds germination (ISG, %) [1, 3] | Inhibition of the Lepidium sativum seeds germination (ISG, %) [1, 4] | Inhibition of the Lepidium sativum seeds germination (ISG, %) [1, 5] | Inhibition of the Lepidium sativum seeds germination (ISG, %) [1, 6] | Inhibition of the Lepidium sativum seeds germination (ISG, %) [1, 7] | Inhibition of the Lepidium sativum seeds germination (ISG, %) [1, 8] | Inhibition of the Lepidium sativum seeds germination (ISG, %) [1, 9] | Inhibition of the Lepidium sativum seeds germination (ISG, %) [1, 10] | Inhibition of the Lepidium sativum seeds germination (ISG, %) [1, 11] | Inhibition of the Lepidium sativum seeds germination (ISG, %) [1, 12] | Inhibition of the Lepidium sativum seeds germination (ISG, %) [1, 13] | Inhibition of the root growth in pregerminated Lepidium sativum seeds (IRG, %) [2, 3] | Inhibition of the root growth in pregerminated Lepidium sativum seeds (IRG, %) [2, 4] | Inhibition of the root growth in pregerminated Lepidium sativum seeds (IRG, %) [2, 5] | Inhibition of the root growth in pregerminated Lepidium sativum seeds (IRG, %) [2, 8] | Inhibition of the root growth in pregerminated Lepidium sativum seeds (IRG, %) [2, 9] | Inhibition of the root growth in pregerminated Lepidium sativum seeds (IRG, %) [2, 10] | Inhibition of the root growth in pregerminated Lepidium sativum seeds (IRG, %) [2, 11] | Inhibition of the root growth in pregerminated Lepidium sativum seeds (IRG, %) [2, 12] | Inhibition of the root growth in pregerminated Lepidium sativum seeds (IRG, %) [2, 13] | also measured |
| --- | --- | --- | --- | --- | --- | --- | --- | --- | --- | --- | --- | --- | --- | --- | --- | --- | --- | --- | --- | --- | --- |
| N[C@@H](Cc1c[nH]cn1)C(=O)O.OCCN(CCO)CCO [[TEA][His]] | 0.0(±0.0) % | 1.9(±0.5) % | 3.7(±0.9) % | 5.6(±0.5) % | 7.4(±0.5) % | 9.3(±0.5) % | 12.0(±1.4) % | 14.8(±0.9) % | 25.9(±1.2) % | 27.8(±2.8) % | 74.1(±0.5) % | 1.1(±2.2) % | 12.9(±2.1) % | 15.7(±2.2) % | 37.1(±2.0) % | 48.6(±1.6) % | 62.9(±1.2) % | 72.9(±0.9) % | 80.0(±0.8) % | 84.3(±0.7) % | MIC (%) (C. albicans ATCC 10231): 2.50%; Inhibition of the root growth in pregerminated Lepidium sativum seeds (IRG, %) [2, 6]: 22.1(±2.1) %; Inhibition of the root growth in pregerminated Lepidium sativum seeds (IRG, %) [2, 7]: 28.6% |
| CC(C)C[C@H](N)C(=O)O.OCCN(CCO)CCO [[TEA][Leu]] | 0.0(±1.9) % | 0.0(±1.9) % | 5.7(±0.5) % | 6.6(±0.9) % | 7.5(±2.1) % | 11.3(±0.8) % | 15.1(±1.6) % | 32.1(±0.1) % | 58.5% | 84.9(±2.5) % | 100(±0.1) % | 0.0(±0.0) % | 8.9(±2.5) % | 10.5(±2.1) % | 39.9(±1.5) % | 53.0(±1.0) % | 67.9(±0.9) % | 71.6(±0.8) % | 88.7(±0.7) % | 94.7(±0.5) % | ED20 (L929 fibroblasts; 24h exposure): 0.23±0.02%; ED50 (L929 fibroblasts; 24h exposure): 0.51±0.22%; ED80 (L929 fibroblasts; 24h exposure): 0.93±0.07%; ED20 (L929 fibroblasts; 48h exposure): 0.21±0.01%; ED50 (L929 fibroblasts; 48h exposure): 0.51±0.01%; ED80 (L929 fibroblasts; 48h exposure): 0.82±0.03%; Inhibition of the root growth in pregerminated Lepidium sativum seeds (IRG, %) [2, 6]: 20.3(±1.7) %; Inhibition of the root growth in pregerminated Lepidium sativum seeds (IRG, %) [2, 7]: 30.0(±1.9) % |
| NCC(=O)O.OCCN(CCO)CCO [[TEA][Gly]] | 0.0(±0.5) % | 0.0(±0.5) % | 1.7 (±1.2) % | 3.4 (±1.3) % | 6.9 (±0.8) % | 13.8(±2.6) % | 20.7(±3.1) % |  | 63.8% | 81.0(±1.7) % | 87.9(±0.9) % | 8.7% | 16.2(±1.8) % | 20.9(±2.0) % | 62.3(±1.3) % | 75.7(±0.7) % | 80.6(±0.6) % | 93.3(±0.5) % | 96.2(±0.4) % | 95.9(±0.4) % | Inhibition of the root growth in pregerminated Lepidium sativum seeds (IRG, %) [2, 6]: 20.6(±1.7) %; Inhibition of the root growth in pregerminated Lepidium sativum seeds (IRG, %) [2, 7]: 49.3(±1.3) % |
| NC(CCC(=O)O)C(=O)O.OCCN(CCO)CCO.OCCN(CCO)CCO (stereo not drawn) [[TEA]2[Glu]] | 0.0(±0.0) % | 0.0(±0.0) % | 0.0(±0.0) % | 3.7(±0.9) % | 5.6(±0.9) % | 7.4(±0.9) % | 14.8(±2.5) % | 22.2(±2.2) % | 29.6(±1.7) % | 37.0(±0.5) % | 63.0(±0.5) % | 10.0(±2.9% | 18.1(±2.7) % | 21.3(±2.7) % | 44.4(±2.2) % | 51.5(±2.1) % | 68.2(±1.3) % | 78.5(±0.6) % | 87.0(±0.4) % | 90.5(±0.7) % |  |
| N[C@@H](Cc1c[nH]c2ccccc12)C(=O)O.OCCN(CCO)CCO [[TEA][Trp]] | 0.0(±0.0) % | 1.9(±0.5) % | 3.7(±1.3) % | 12.0(±0.8) % | 16.7(±2.2) % | 18.5(±1.8) % | 28.7(±1.3) % | 38.9(±1.6) % | 53.7% | 61.1(±1.4) % | 83.3(±0.8) % | 38.1% | 41.1(±1.2) % | 48.8(±1.0) % | 54.7(±1.0) % | 57.6(±0.8) % | 69.0(±0.8) % | 76.0(±0.7) % | 88.8(±0.6) % | 95.0(±0.4) % | Inhibition of the root growth in pregerminated Lepidium sativum seeds (IRG, %) [2, 6]: 51.9(±1.0) %; Inhibition of the root growth in pregerminated Lepidium sativum seeds (IRG, %) [2, 7]: 53.3(±0.4) % |
| N[C@@H](Cc1ccccc1)C(=O)O.OCCN(CCO)CCO [[TEA][Phe]] | 0.0(±0.0) % | 0.0(±0.0) % | 0.9(±0.8) % | 1.8(±0.9) % | 3.5(±1.7) % | 5.3(±0.8) % | 8.8(±1.3) % | 10.5(±0.8) % |  | 22.8(±2.4) % | 86.0(±2.1) % | 23.6% | 24.4(±2.0) % | 28.5(±2.0) % | 53.1(±1.3) % | 60.2(±1.4) % | 69.6(±1.1) % | 78.3(±0.9) % | 83.5(±0.9) % | 92.1(±0.6) % | ED20 (L929 fibroblasts; 24h exposure): 0.37±0.04%; ED50 (L929 fibroblasts; 24h exposure): 0.72±0.07% and 0.72%; ED80 (L929 fibroblasts; 24h exposure): 1.20±0.19%; ED20 (L929 fibroblasts; 48h exposure): 0.38±0.04%; ED50 (L929 fibroblasts; 48h exposure): 0.63±0.04%; ED80 (L929 fibroblasts; 48h exposure): 0.91±0.14%; Inhibition of the root growth in pregerminated Lepidium sativum seeds (IRG, %) [2, 6]: 44.2(±1.6) %; Inhibition of the root growth in pregerminated Lepidium sativum seeds (IRG, %) [2, 7]: 48.1(±1.7) % |

Source: paper PMC12029836, “Phytotoxicity, Cytotoxicity, and Antimicrobial Activity of Triethanolammonium Amino Acids Salts” (Molecules, 2025)
